Assay results from PMC5507300, “Antibacterial small molecules targeting the conserved TOPRIM domain of DNA gyrase” (PLoS ONE, 2017).
Converted amounts (≈) assume the structure as drawn. Like-named read-outs stand apart in the source and are kept apart here.

How the values were obtained:
Assay type in all cases: cell-based
E. coli HS151 (ΔtolC) = test: microbe, parasite or virus in culture; conditions: Escherichia coli
Text: (§1) E. coli HS151 (ΔtolC) has been described previously. […] E. coli BW25113 and the Keio gene deletion collection based on BW25113 [25] were obtained from Thermo Fisher Scientific (Waltham, MA) and described in [26]. The plasmid-borne FQ resistance determinant, qnrVC3 [27], was kindly provided by D. Hooper (Massachusetts General Hospital). […] MB2884 (E. coli) and CL15245 (K. pneumoniae) are clinical isolates from the Merck & Co., Inc., Kenilworth, NJ, USA, strain collection. S. aureus COL is a methicillin-resistant clinical isolate.
(§2) Compound doubling dilutions were prepared in 100% DMSO (Sigma Aldrich) and 2 μL of each dilution was transferred to a 96-well plate with lid (Thermo Scientific). Inoculum for all MIC testing was prepared using the BBL Prompt Inoculation System (Becton Dickinson, Franklin Lakes, NJ USA) as described by the manufacturer to produce a suspension of cells at approximately 1.5 x 10^8 colony forming units (CFU)/mL [34–36] and a further dilution (1:1000) was made into cation adjusted Mueller-Hinton broth (CAMH broth, Becton-Dickinson). One hundred μL of this inoculum were then transferred to each well of the 96-well plate containing diluted compound (above). Plates were covered and incubated overnight (18 hrs.) at 37°C.

[1] = test system: P. aeruginosa(effluxΔ) MB5890; test: microbe, parasite or virus in culture; conditions: Pseudomonas aeruginosa
Text: as §1, §2

[2] = test system: E. coli MB2884 (clinical isolate); test: Broth microdilution MIC, E. coli MB2884; conditions: Escherichia coli; Table 1; MB2884 E. coli; read-out: MIC
Text: as §1, §2

[3] = test system: A. baumannii ΔlpxC MB9796; test: Broth microdilution MIC, A. baumannii MB9796; conditions: Acinetobacter baumannii
Text: (§3) E. coli HS151 (ΔtolC) has been described previously. Gyrase inhibitor-resistant isolates (GYR101-108) were derived by selection for spontaneous resistance to MRL-770 or MRL-423 (Fig 1) in E. coli HS151 as described below. E. coli BW25113 and the Keio gene deletion collection based on BW25113 [25] were obtained from Thermo Fisher Scientific (Waltham, MA) and described in [26]. The plasmid-borne FQ resistance determinant, qnrVC3 [27], was kindly provided by D. Hooper (Massachusetts General Hospital). MB9796 (A. baumannii) is a derivative of MB9797 (ATCC19606) lacking lipopolysaccharide. The efflux-defective P. aeruginosa strain MB5890 (CB398) is a derivative of MB5919 (PAO1). MB2884 (E. coli) and CL15245 (K. pneumoniae) are clinical isolates from the Merck & Co., Inc., Kenilworth, NJ, USA, strain collection. S. aureus COL is a methicillin-resistant clinical isolate.
as §2

[4] = test system: A. baumanii MB9797 (ATCC19606); test: Broth microdilution MIC, A. baumannii MB9797; conditions: Acinetobacter baumannii, Table 1, MB9797 A. baumanii, read-out: MIC
Text: as §3, §2

[5] = test system: P. aeruginosa MB5919 (PAO1); test: Broth microdilution MIC, P. aeruginosa MB5919; conditions: Pseudomonas aeruginosa, Table 1, MB5919 P. aeruginosa, read-out: MIC
Text: as §1, §2

[6] = test system: K. pneumoniae CL15245 (clinical isolate); test: Broth microdilution MIC, K. pneumoniae CL15245; conditions: Klebsiella pneumoniae; Table 1; CL15245 K. pneumoniae; read-out: MIC
Text: as §1, §2

S. aureus (MRSA) COL = test: Broth microdilution MIC, S. aureus COL; conditions: Staphylococcus aureus
Text: as §3, §2

[7] = test system: E. coli GYR103 GyrB L446Q; test: microbe, parasite or virus in culture; conditions: Escherichia coli
Text: as §3, §2
After the agar solidified, 5 μL of a saturated bacterial culture, grown in CAMH broth, were dispensed on the agar surface and allowed to dry at room temperature. […] To select for resistance, a 100 mm petri dish was filled with 25 mL CAMH agar containing 8 μg/mL MRL-770 or 0.5 μg/mL MRL-423 (Fig 1). The cells in 1 mL of an overnight culture of E. coli HS151 (~10^9 CFU/mL) were concentrated by centrifugation and spread onto the surface of an MRL-770 or MRL-423 containing plate. After the surface dried at room temperature the plate was incubated at 37°C overnight. Any colonies that arose were counted and an approximate frequency of resistance was calculated after confirming resistance by restreaking on media containg compound as well as measuring MICs (see Results). Genomic DNA from the parent strain (E. coli HS151) and purified (restreaked) resistant isolates was obtained with a GeneJET genomic DNA purification kit according to the manufacturer’s instructions (Fisher Scientific). Assembled whole genome mutant sequences were then compared to the parent strain and polymorphisms were identified as described.

[8] = test system: E. coli GYR101 GyrB F513L; test: microbe, parasite or virus in culture; conditions: Escherichia coli
Text: as §1, §2
(§4) After the agar solidified, 5 μL of a saturated bacterial culture, grown in CAMH broth, were dispensed on the agar surface and allowed to dry at room temperature. […] After the surface dried at room temperature the plate was incubated at 37°C overnight. […] Genomic DNA from the parent strain (E. coli HS151) and purified (restreaked) resistant isolates was obtained with a GeneJET genomic DNA purification kit according to the manufacturer’s instructions (Fisher Scientific). Assembled whole genome mutant sequences were then compared to the parent strain and polymorphisms were identified as described.

[9] = test system: E. coli GYR102 GyrB E466EV; test: microbe, parasite or virus in culture; conditions: Escherichia coli
Text: as §1, §2, §4

[10] = test system: E. coli GYR104 GyrB L470I; test: microbe, parasite or virus in culture; conditions: Escherichia coli
Text: as §1, §2, §4

[11] = test system: E. coli GYR105 GyrB T469K; test: microbe, parasite or virus in culture; conditions: Escherichia coli
Text: as §1, §2, §4

[12] = test system: E. coli GYR106 GyrB F513L/A468V; test: microbe, parasite or virus in culture; conditions: Escherichia coli
Text: as §1, §2, §4

[13] = test system: E. coli GYR107 GyrB F513L/L422V; test: microbe, parasite or virus in culture; conditions: Escherichia coli
Text: as §1, §2, §4

[14] = test system: E. coli GYR108 GyrB L470I/V467L; test: microbe, parasite or virus in culture; conditions: Escherichia coli
Text: as §1, §2, §4

E. coli CIP101 GyrA D87N = test: microbe, parasite or virus in culture; conditions: Escherichia coli
Protocol: as §2

E. coli HS151 (qnrVC) = test: Broth microdilution MIC, E. coli HS151 (qnrVC); conditions: Escherichia coli
Text: as §3, §2

E. coli BW25113 ΔtolC = test: Broth microdilution MIC, E. coli BW25113 ΔtolC; conditions: Escherichia coli
Text: as §3, §2
The yacG deletion allele from the Keio collection was amplified by PCR (primers: […] and […]) and moved to BW25113 ΔtolC as described below. The E. coli strain BW25113 ΔtolC containing pKD46 [25] was used to inoculate SOB (Invitrogen)/0.2% w/v arabinose (Sigma Aldrich)/ampicillin (100 μg/mL) and grown overnight at 30°C. The overnight culture was then diluted 1/40 into 20 mL fresh SOB/0.2% w/v arabinose/ampicillin (100 μg/mL) and grown at 30°C while shaking for ~3 hrs until OD600 = 0.5. […]

[15] = test system: E. coli BW25113 ΔtolC/ΔyacG; test: Broth microdilution MIC, E. coli BW25113 ΔtolC/ΔyacG; conditions: Escherichia coli, BW25113
Protocol: as §2
The yacG deletion allele from the Keio collection was amplified by PCR (primers: […] and […]) and moved to BW25113 ΔtolC as described below. The E. coli strain BW25113 ΔtolC containing pKD46 [25] was used to inoculate SOB (Invitrogen)/0.2% w/v arabinose (Sigma Aldrich)/ampicillin (100 μg/mL) and grown overnight at 30°C. The overnight culture was then diluted 1/40 into 20 mL fresh SOB/0.2% w/v arabinose/ampicillin (100 μg/mL) and grown at 30°C while shaking for ~3 hrs until OD600 = 0.5. Cells were pelleted by centrifugation at 4000 rpm for 10 min, washed with 40 mL ice cold sterile, distilled H2O, then 3 x 1 mL ice cold 10% glycerol followed by centrifugation at 5000 g for 3 minutes. The pellet was resuspended in 100 μL of 10% glycerol (1/200 of starting culture). For transformation, 5 μL of gel purified PCR product was added to 50 μL cells, mixed, and immediately electroporated in a 0.2 cm gap cuvette at 2.5kV, 25 μF, 200 Ω (BioRad, Hercules, CA USA). Electroporated cells were recovered in 1 mL SOC (Invitrogen)/0.2% arabinose at 37°C for 2 hours with shaking. Cells in amounts of 50 and 950 μL were then plated on LB agar supplemented with kanamycin (25 μg/mL) and incubated overnight at 37°C. Correct gene replacements were verified by PCR.

[16] = Table 2, HS151, GyrB mutation none

Compound `CO[C@@H]1[C@@H](OC(N)=O)[C@@H](O)[C@H](Oc2ccc3c(O)c(NC(=O)c4ccc(O)c(CC=C(C)C)c4)c(=O)oc3c2C)OC1(C)C` [novobiocin] has an MIC (E. coli HS151 (ΔtolC); Fig 4 legend, E. coli HS151) of 2 µg/mL (≈ 3.26 µM), an MIC (E. coli HS151 (ΔtolC); Table 1, HS151 E. coli ΔtolC) of 2 µg/mL (≈ 3.26 µM) and an MIC (E. coli HS151 (ΔtolC); [16]) of 2 µg/mL (≈ 3.26 µM). For the same compound, the MIC (E. coli HS151 (ΔtolC); Table 3, HS151) was 2 µg/mL (≈ 3.26 µM), the MIC [1] was 64 µg/mL (≈ 104 µM) and the MIC [2] was greater than 64 µg/mL. The MIC [3] was less than 0.0625 µg/mL, the MIC [4] was 8 µg/mL (≈ 13.1 µM) and the MIC [5] was 64 µg/mL (≈ 104 µM). It also gave an MIC [6] greater than 64 µg/mL, an MIC (S. aureus (MRSA) COL; MRSA) of 0.125 µg/mL (≈ 0.204 µM) and an MIC [7] of 2 µg/mL (≈ 3.26 µM). The MIC [8] was 2 µg/mL (≈ 3.26 µM), the MIC [9] was 1 µg/mL (≈ 1.63 µM) and the MIC [10] was 2 µg/mL (≈ 3.26 µM). It also gave an MIC [11] of 2 µg/mL (≈ 3.26 µM), an MIC [12] of 2 µg/mL (≈ 3.26 µM) and an MIC [13] of 2 µg/mL (≈ 3.26 µM). The MIC [14] was 2 µg/mL (≈ 3.26 µM), the MIC (E. coli CIP101 GyrA D87N) was 2 µg/mL (≈ 3.26 µM) and the MIC (E. coli HS151 (qnrVC)) was 2 µg/mL (≈ 3.26 µM). It also gave an MIC (E. coli BW25113 ΔtolC) of 2 µg/mL (≈ 3.26 µM) and an MIC [15] of 2 µg/mL (≈ 3.26 µM).
For `CO[C@H]1/C=C/O[C@@]2(C)Oc3c(C)c(O)c4c(O)c(c(/C=N/N5CCN(C)CC5)c(O)c4c3C2=O)NC(=O)/C(C)=C\C=C\[C@H](C)[C@H](O)[C@@H](C)[C@@H](O)[C@@H](C)[C@H](OC(C)=O)[C@@H]1C` [rifampicin], the MIC [1] was 32 µg/mL (≈ 38.9 µM), the MIC [2] was 8 µg/mL (≈ 9.72 µM) and the MIC [3] was less than 0.0625 µg/mL. It also gave an MIC [4] of 2 µg/mL (≈ 2.43 µM), an MIC [5] of 32 µg/mL (≈ 38.9 µM) and an MIC [6] of 32 µg/mL (≈ 38.9 µM). The MIC (S. aureus (MRSA) COL; MRSA) was less than 0.0625 µg/mL and the MIC (E. coli CIP101 GyrA D87N) was 8 µg/mL (≈ 9.72 µM).
Compound `CN(C)[C@@H]1C(O)=C(C(N)=O)C(=O)[C@@]2(O)C(O)=C3C(=O)c4c(O)cccc4[C@@](C)(O)[C@H]3C[C@@H]12` [tetracycline] has an MIC (E. coli HS151 (ΔtolC); Table 1, HS151 E. coli ΔtolC) of 0.5 µg/mL (≈ 1.13 µM), an MIC (E. coli HS151 (ΔtolC); [16]) of 0.5 µg/mL (≈ 1.13 µM) and an MIC [1] of 0.25 µg/mL (≈ 0.563 µM). It also gave an MIC [3] of 0.25 µg/mL (≈ 0.563 µM), an MIC [4] of 2 µg/mL (≈ 4.5 µM) and an MIC [5] of 32 µg/mL (≈ 72 µM). For the same compound, the MIC [6] was 2 µg/mL (≈ 4.5 µM), the MIC (S. aureus (MRSA) COL; Table 1, COL S. aureus (MRSA), read-out: MIC) was greater than 64 µg/mL and the MIC [7] was 0.5 µg/mL (≈ 1.13 µM). For the same compound, the MIC [8] was 0.5 µg/mL (≈ 1.13 µM), the MIC [9] was 0.5 µg/mL (≈ 1.13 µM) and the MIC [10] was 0.5 µg/mL (≈ 1.13 µM). For the same compound, the MIC [11] was 0.5 µg/mL (≈ 1.13 µM), the MIC [12] was 0.5 µg/mL (≈ 1.13 µM) and the MIC [13] was 0.5 µg/mL (≈ 1.13 µM). It also gave an MIC [14] of 0.5 µg/mL (≈ 1.13 µM) and an MIC (E. coli CIP101 GyrA D87N) of 0.5 µg/mL (≈ 1.13 µM).
